Legend:
VEGF-C = VEGF-C cytokine analysis (VEGFC Human ELISA Kit) in normal human epidermal keratinocytes; type: cell-based; details: NHEK, 48 hours, compared with DMSO control group (100%); extract 1-100 μg/ml, compound 100-2000 nmoles; FIGS. 5 and 6
Protocol: Normal human epidermal keratinocytes were cultured in 6 well plates for 24 hours, while treated with DMSO as a control group (reference; 100%), treated with the fermented ginseng extract of the preparation example and the compound represented by Chemical Formula 1-1 (Sigma-Aldrich Co., Ltd.) at each concentration of 1, 10, 20, 50 and 100 μg/ml and at each concentration of 100, 250, 500, 1000, and 2000 nmoles, cultured for 48 hours, and then measured with respect to production and activity of VEGF-C through VEGF-C cytokine analysis by using VEGFC Human ELISA Kit (ThermoFisher Scientific, U.S.A.) according to a manual, and the results are shown in FIGS. 5 and 6.

reelin = test: Reelin cytokine analysis (Human reelin ELISA Kit) in human dermal lymphatic endothelial cells; type: cell-based; details: HDLEC, 48 hours, compared with DMSO control group (100%); extract 1-100 μg/ml, compound 100-2000 nmole; FIGS. 3 and 4
Protocol: Human dermal lymphatic endothelial cells were cultured in 6 well plates for 24 hours, while treated with DMSO as a control group (reference; 100%), treated with the fermented ginseng extract of the preparation example and the compound represented by Chemical Formula 1-1 (Sigma-Aldrich Co., Ltd.) at each concentration of 1 μg/ml, 10 μg/ml, 20 μg/ml, 50 μg/ml, and 100 μg/ml and at each concentration of 100 nmole, 250 nmole, 500 nmole, 1000 nmole, and 2000 nmole, cultured for 48 hours, and then measured with respect to production and activity of reelin through a reelin cytokine analysis according to a manual by using Human reelin ELISA Kit (Mybiosource, Inc., U.S.A.), and the results are shown in FIGS. 3 and 4.

CC(C)=CCC[C@](C)(O[C@@H]1O[C@H](CO[C@@H]2O[C@H](CO)[C@@H](O)[C@H](O)[C@H]2O)[C@@H](O)[C@H](O)[C@H]1O)[C@H]1CC[C@]2(C)[C@@H]1[C@H](O)C[C@@H]1[C@@]3(C)CC[C@H](O[C@@H]4O[C@H](CO)[C@@H](O)[C@H](O)[C@H]4O)C(C)(C)[C@@H]3CC[C@]12C
production and activity of VEGF-C (VEGF-C): more improved the production and activity of VEGF-C
production and activity of reelin (reelin): improved production and activity of reelin

Reference: US12104195B2, “Reelin/VEGF-C production/activation promoter and skin external composition using the same” (Amorepacific Corporation, priority 2022, dated 2024)
